Structures can show the parent of a compound that is named as a salt.
Experiments:
[1] = tested on: Aspergillus fumigatus IFO 6344; assay: paper disk growth inhibition on agar (antifungal spectrum); type: cell-based; conditions: IFO6344, 48 h, medium A (yeast nitrogen base agar, pH 7.0), 1000 μg/ml, 8 mm disk, 2 days, 28° C., read-out: Diameter of growth inhibition zone
Method: (§1) Evaluation for fungicidal acitivity of the compound (I) was carried out by the following method.
(§2) A paper disk (manufactured by TOYO SEISAKUSHO, 8mm in diameter) dipped into a methanol solution containing the compound (I) in an amount of 1000 μg/ml was placed on an agar plate containing various fungi. After the cultivation of said fungi for two days at 28° C., mesurement was made to the diameter of a growth inhibiton zone produced around the paper disk. The media used for the evaluation are as follows:
(§3) A: Yeast nitrogen base agar (pH 7.0)

[2] = tested on: Aspergillus niger IFO 4066; assay: as above; type: cell-based; conditions: IFO4066, 48 h, medium A (yeast nitrogen base agar, pH 7.0), 1000 μg/ml, 8 mm disk, 2 days, 28° C., read-out: Diameter of growth inhibition zone
Method: as §1, §2, §3

[3] = tested on: Candida albicans IFO 0583; assay: as above; type: cell-based; conditions: IFO0583, 48 h, medium A (yeast nitrogen base agar, pH 7.0), 1000 μg/ml, 8 mm disk, 2 days, 28° C., read-out: Diameter of growth inhibition zone
Method: as §1, §2, §3

Candida utilis IFO 0619 = assay: as above; type: cell-based; conditions: Williopsis jadinii, IFO0619, 48 h, medium A (yeast nitrogen base agar, pH 7.0), 1000 μg/ml, 8 mm disk, 2 days, 28° C., read-out: Diameter of growth inhibition zone
Method: as §1, §2, §3

[4] = tested on: Cryptococcus neoformans IFO 0410; assay: as above; type: cell-based; conditions: IFO0410, 48 h, medium A (yeast nitrogen base agar, pH 7.0), 1000 μg/ml, 8 mm disk, 2 days, 28° C., read-out: Diameter of growth inhibition zone
Method: as §1, §2, §3

[5] = tested on: Microsporum gypseum IFO 6075; assay: as above; type: cell-based; conditions: Nannizzia gypsea, IFO6075, 48 h, medium B (Sabouraud's agar), 1000 μg/ml, 8 mm disk, 2 days, 28° C., read-out: Diameter of growth inhibition zone
Method: as §1
as §2, with “disk.” for “disk. The media used for the evaluation are as follows:”

[6] = tested on: Trichophyton methagrophytes IFO 7522; assay: as above; type: cell-based; conditions: IFO7522, 48 h, medium B (Sabouraud's agar), 1000 μg/ml, 8 mm disk, 2 days, 28° C., read-out: Diameter of growth inhibition zone
Method: as §1
as §2, with “disk.” for “disk. The media used for the evaluation are as follows:”

[7] = tested on: Trichophyton rubrum IFO 6467; assay: as above; type: cell-based; conditions: IFO6467, 48 h, medium B (Sabouraud's agar), 1000 μg/ml, 8 mm disk, 2 days, 28° C., read-out: Diameter of growth inhibition zone
Method: as §1
as §2, with “disk.” for “disk. The media used for the evaluation are as follows:”

Erysiphe graminis = assay: preventive effect against powdery mildew of barley (Experimental Method 1); type: in vivo, Erysiphe graminis (on barley); conditions: 200 ppm; barley seedling, 8 days after inoculation
Method: Experimental Method 1 Experiment for preventive effect against powdery mildew of barley (Erysiphe graminis) […] The resultant solution was diluted with water to obtain a predetermined concentration of the active ingredient. To this diluted solution was added a sticker Dyne®[manufactured by Takeda Chemical Industries, Ltd., and including polyoxyethylenenonylphenylether (10 wt. %) and potassium ligninsulfonate (10 wt. %)] in a ratio of 0.03 wt. % (end concentration) to prepare a spray. Thus obtained spray was sprayed to a barley seedling (about one week seeding) such that the spray was dripped from the seedling. After air-drying, the spore of susceptible leaf with Erysiphe graminis was forcibly deposited for inoculation. The spore was maintained at an artificial inoculation chamber at a temperature of 20° C. for 8 days after the inoculation. Thereafter, the area rate of lesion was examined to represent the preventive value by the following coefficient. […] Preventive value 2: area rate of lesion 11-20% Preventive value 1: area rate of lesion 21-50% Preventive value 0: area rate of lesion 51% or more

Pyricularia oryzae = type: in vivo, Pyricularia oryzae (on rice); conditions: 200 ppm; rice seedling, 6 days after inoculation
Candida albicans = assay: protective effect against experimental infection in mice; conditions: in Mus musculus, 168 h
Method: 5-Week old Crj:CDF1 mice were inoculated with the minimum lethal dose of Candida albicans in its vein or abdominal cavity. A drug was administered once immediately after the infection or twice, i.e., immediately after and two hours after the infection. The drug effect was shown with ED50 value calculated by Reed and Muench method from the survival ratio on day 7 after infection. The ED50 value was calculated from the total dose.

CCN(CC)C(=S)S[C@H](C)[C@](O)(Cn1cncn1)c1ccc(F)cc1F (racemic) [Compound 1, [(2RS,3RS)-3-(2,4-difluorophenyl)-3-hydroxy-4-(1H-1,2,4-triazol-1-yl)-2butyl] N,N-diethyldithiocarbamate]
zone of inhibition at 1000 µg/mL [1]: 45 mm | zone of inhibition at 1000 µg/mL [2]: 28 mm | zone of inhibition at 1000 µg/mL [3]: 40 mm | zone of inhibition at 1000 µg/mL (Candida utilis IFO 0619): 32 mm | zone of inhibition at 1000 µg/mL [4]: 35 mm | zone of inhibition at 1000 µg/mL [5]: 40 mm | zone of inhibition at 1000 µg/mL [6]: 40 mm | zone of inhibition at 1000 µg/mL [7]: 35 mm | Preventive Value for Erysiphe graminis (Erysiphe graminis): 3 (area rate of lesion 0-10%) | Preventive Value for Pyricularia oryzae (Pyricularia oryzae): 3 (area rate of lesion 0-14%) | ED50 (Candida albicans; sc): 2 mg/kg

Cc1cccc(N(C)C(=S)S[C@H](C)[C@](O)(Cn2cncn2)c2ccc(F)cc2F)c1 [Compound 9, [(2R,3R)-3-(2,4-difluorophenyl)-3-hydroxy-4-(1H,1,2,4-triazol-1-yl)-2-butyl] N-methyl-N-(3-methylphenyl) dithiocarbamate hydrochloride]
zone of inhibition at 1000 µg/mL [1]: 15 mm | zone of inhibition at 1000 µg/mL [2]: 13 mm | zone of inhibition at 1000 µg/mL [3]: 25 mm | zone of inhibition at 1000 µg/mL (Candida utilis IFO 0619): 20 mm | zone of inhibition at 1000 µg/mL [4]: 20 mm | zone of inhibition at 1000 µg/mL [5]: 20 mm | zone of inhibition at 1000 µg/mL [6]: 15 mm | zone of inhibition at 1000 µg/mL [7]: 30 mm | ED50 (Candida albicans; po): 2 mg/kg

CCN(CC)C(=S)S[C@H](C)[C@](O)(Cn1cncn1)c1ccc(F)cc1F.Cl [Compound 2, [(2R,3R)-3-(2,4-difluorophenyl)-3-hydroxy-4-(1H-1,2,4-triazol-1-yl)-2-butyl] N,N-diethyldithiocarbamate hydrochloride]
zone of inhibition at 1000 µg/mL [1]: 50 mm | zone of inhibition at 1000 µg/mL [2]: 35 mm | zone of inhibition at 1000 µg/mL [3]: 30 mm | zone of inhibition at 1000 µg/mL (Candida utilis IFO 0619): 40 mm | zone of inhibition at 1000 µg/mL [4]: 30 mm | zone of inhibition at 1000 µg/mL [5]: 48 mm | zone of inhibition at 1000 µg/mL [6]: 48 mm | zone of inhibition at 1000 µg/mL [7]: 40 mm | Preventive Value for Erysiphe graminis (Erysiphe graminis): 3 (area rate of lesion 0-10%) | Preventive Value for Pyricularia oryzae (Pyricularia oryzae): 3 (area rate of lesion 0-14%) | ED50 (Candida albicans; po): 0.5 mg/kg
